Assays:
Experiment in all cases: relative viability (nuclei count vs DMSO), 5 days (fraction); higher = more cells survive
NCI-H322M = tested on: NCI-H322M
Outline: (§1)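 Values are medians from duplicate plates. Each reflects relative viability, defined as the nuclei count of treated wells over that of vehicle wells. Lung cancer cell lines in 1536-well plates were pin-tool dosed one day after seeding with one drug alone or with a fixed anchor-drug dose plus five library-drug doses (not always all listed) in √10 steps, then fixed, stained and imaged at 4× after 5 days.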

NCI-H520 = tested on: NCI-H520
Outline: as §1

HCC-827 = tested on: HCC-827
Outline: as §1

NCI-H2087 = tested on: NCI-H2087
Outline: as §1

LCLC-97TM1 = tested on: LCLC-97TM1
Outline: as §1

NCI-H647 = tested on: NCI-H647
Outline: as §1

COR-L 105 = tested on: COR-L 105
Outline: as §1

NCI-H2126 = tested on: NCI-H2126
Outline: as §1

PC-14 = tested on: PC-14
Outline: as §1

NCI-H2405 = tested on: NCI-H2405
Outline: as §1

H3255 = tested on: H3255
Outline: as §1

`C=C1C(=O)O[C@@H](CCCCCCCC)[C@@H]1C(=O)O` [C-75] + Cc1nc(NC(=O)N2CCC[C@H]2C(N)=O)sc1-c1ccnc(C(C)(C)C(F)(F)F)c1 [Alpelisib] (partner 2 µM) was tested, and the relative viability (NCI-H322M; first compound 0.08 µM) was 0.776, the relative viability (NCI-H322M; first compound 0.253 µM) was 1.05 and the relative viability (NCI-H322M; first compound 0.8 µM) was 0.821. For the same compound, the relative viability (NCI-H322M; first compound 2.53 µM) was 0.771, the relative viability (NCI-H322M; first compound 8 µM) was 0.836 and the relative viability (NCI-H520; first compound 0.08 µM) was 0.836. For the same compound, the relative viability (NCI-H520; first compound 0.253 µM) was 1.09, the relative viability (NCI-H520; first compound 0.8 µM) was 1.02 and the relative viability (NCI-H520; first compound 2.53 µM) was 0.996. It also gave a relative viability (NCI-H520; first compound 8 µM) of 1.01, a relative viability (HCC-827; first compound 0.08 µM) of 0.936 and a relative viability (HCC-827; first compound 0.253 µM) of 0.97. For the same compound, the relative viability (HCC-827; first compound 0.8 µM) was 0.953, the relative viability (HCC-827; first compound 2.53 µM) was 1.01 and the relative viability (HCC-827; first compound 8 µM) was 0.987. For the same compound, the relative viability (NCI-H2087; first compound 0.08 µM) was 1.07, the relative viability (NCI-H2087; first compound 0.253 µM) was 0.921 and the relative viability (NCI-H2087; first compound 0.8 µM) was 1.02. It also gave a relative viability (NCI-H2087; first compound 2.53 µM) of 0.682, a relative viability (NCI-H2087; first compound 8 µM) of 0.934 and a relative viability (LCLC-97TM1; first compound 0.08 µM) of 0.286. For the same compound, the relative viability (LCLC-97TM1; first compound 0.253 µM) was 0.376, the relative viability (LCLC-97TM1; first compound 0.8 µM) was 0.225 and the relative viability (LCLC-97TM1; first compound 2.53 µM) was 0.251. The relative viability (LCLC-97TM1; first compound 8 µM) was 0.271, the relative viability (NCI-H647; first compound 0.08 µM) was 0.972 and the relative viability (NCI-H647; first compound 0.253 µM) was 1.28. For the same compound, the relative viability (NCI-H647; first compound 2.53 µM) was 1, the relative viability (NCI-H647; first compound 8 µM) was 0.643 and the relative viability (COR-L 105; first compound 0.08 µM) was 1.15. For the same compound, the relative viability (COR-L 105; first compound 0.253 µM) was 1.1, the relative viability (COR-L 105; first compound 0.8 µM) was 1.06 and the relative viability (COR-L 105; first compound 2.53 µM) was 0.895. For the same compound, the relative viability (COR-L 105; first compound 8 µM) was 0.668, the relative viability (NCI-H2126; first compound 0.08 µM) was 0.79 and the relative viability (NCI-H2126; first compound 0.253 µM) was 0.826. The relative viability (NCI-H2126; first compound 0.8 µM) was 0.732, the relative viability (NCI-H2126; first compound 2.53 µM) was 0.621 and the relative viability (NCI-H2126; first compound 8 µM) was 0.774. It also gave a relative viability (PC-14; first compound 0.08 µM) of 0.897, a relative viability (PC-14; first compound 0.253 µM) of 1.02 and a relative viability (PC-14; first compound 0.8 µM) of 0.904. It also gave a relative viability (PC-14; first compound 2.53 µM) of 0.901, a relative viability (PC-14; first compound 8 µM) of 1.01 and a relative viability (NCI-H2405; first compound 0.08 µM) of 0.833. The relative viability (NCI-H2405; first compound 0.253 µM) was 0.481, the relative viability (NCI-H2405; first compound 0.8 µM) was 0.703 and the relative viability (NCI-H2405; first compound 2.53 µM) was 0.884. The relative viability (NCI-H2405; first compound 8 µM) was 0.816, the relative viability (H3255; first compound 0.08 µM) was 0.615 and the relative viability (H3255; first compound 0.253 µM) was 0.789. It also gave a relative viability (H3255; first compound 0.8 µM) of 0.638, a relative viability (H3255; first compound 2.53 µM) of 0.828 and a relative viability (H3255; first compound 8 µM) of 0.78.

Reference: the supplement of paper PMC10307832
